# Several values for one entry are separate records, joined by “and”; a condition that tells them apart may be missing. Equal entries are not always repeated.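 Exposure lasted 48 hours, with cells grown in 96-well plates and compounds tested at five concentrations. Abbreviation: GI50, concentration required for 50% inhibition of growth. TGI: concentration producing complete growth inhibition.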
# Tests used:
# Experiment in all cases: DTP human tumour cell line panel, 48 h
# HOP-62 NSCLC = test system: HOP-62 NSCLC
# MOLT-4 leukemia = test system: MOLT-4 leukemia
# OVCAR-5 ovarian = test system: OVCAR-5 ovarian
# UACC-257 melanoma = test system: UACC-257 melanoma
# HT29 colon = test system: HT29 colon
# NCI-H226 lung = test system: NCI-H226 lung
# HOP-92 NSCLC = test system: HOP-92 NSCLC
# HS 578T breast = test system: HS 578T breast
Structure (SMILES),GI50 (HOP-62 NSCLC),TGI (HOP-62 NSCLC),GI50 (MOLT-4 leukemia),TGI (MOLT-4 leukemia),GI50 (OVCAR-5 ovarian),TGI (OVCAR-5 ovarian) [µM],GI50 (UACC-257 melanoma),TGI (UACC-257 melanoma),GI50 (HT29 colon),TGI (HT29 colon),GI50 (NCI-H226 lung),TGI (NCI-H226 lung),GI50 (HOP-92 NSCLC),TGI (HOP-92 NSCLC),GI50 (HS 578T breast),TGI (HS 578T breast)
CCc1ccc([OH2+])c(C(=O)[O-])c1.CCc1ccc([OH2+])c(C(=O)[O-])c1.CCc1ccc([OH2+])c(C(=O)[O-])c1.CCc1ccc([OH2+])c(C(=O)[O-])c1.[Cu+2].[Cu+2],> 100 µM,> 100 µM,34.2 µM,> 100 µM,32.3 µM,70.2,> 100 µM,> 100 µM,44.7 µM,> 100 µM,> 50.2 µM,> 100 µM,> 95.9 µM,> 100 µM,> 100 µM,> 100 µM
COc1cc(C(=O)/C=C/c2c[nH]c3ccccc23)cc(OC)c1OC,0.0212 µM,29 µM,0.0473 µM,15.6 µM,0.0728 µM,> 100,–,–,< 0.0146 µM,0.343 µM,0.397 µM,26.8 µM,0.0269 µM,6.46 µM,0.0208 µM,30.4 µM
NS(=O)(=O)c1cccc(Nc2cc(-c3ccc(F)cc3)[nH]n2)c1,> 25 µM,> 25 µM,> 25 µM,> 25 µM,> 25 µM,> 25,> 25 µM,> 25 µM,> 25 µM,> 25 µM,> 25 µM,> 25 µM,> 25 µM,> 25 µM,> 20.8 µM,> 25 µM
O=C(NOCCO)c1ccc2cncn2c1Nc1ccc(I)cc1F,0.0159 µM and < 0.0182 µM,> 71.4 µM,> 10 µM and 35.1 µM,> 100 µM,0.00313 µM and < 0.01 µM,> 100,0.00234 µM and < 0.01 µM,0.0127 µM and < 0.0141 µM,0.00307 µM and < 0.01 µM,> 100 µM,4.86 µM and 7.37 µM,> 100 µM,0.0147 µM and 0.0103 µM,0.325 µM and 0.0811 µM,> 10 µM and 60.6 µM,> 100 µM
CO[C@H]1C[C@H](O[C@H]2CC[C@@]3(C)[C@H](CC[C@@H]4[C@@H]3CC[C@]3(C)[C@@H](C5=CC(=O)OC5)CC[C@]43O)C2)O[C@H](C)[C@H]1O,–,0.0202 µM,–,–,–,0.0896,–,0.215 µM,–,0.0552 µM,–,0.0586 µM,–,0.0882 µM,–,–
CC1(C)C2CC(=O)C1(C)C(OCc1ccccc1)C2Br (configuration not stated),16.3 µM and 54.3 µM,33.9 µM and > 100 µM,–,51.2 µM and 49.9 µM,32.2 µM and > 100 µM,> 100,–,–,–,32.2 µM and 71.3 µM,23.2 µM and > 100 µM,56.1 µM and > 100 µM,–,–,13.4 µM,68.2 µM and 58.8 µM
NP1(Oc2ccc(F)cc2)=NP(N)(Oc2ccc(F)cc2)=NP(Oc2ccc(F)cc2)(Oc2ccc(F)cc2)=N1 (configuration not stated),–,21.5 µM,–,10.5 µM,–,23.7,–,24.7 µM,–,17.2 µM,–,–,–,15.4 µM,–,17.7 µM
OC[C@H]1C[C@](O)(c2ccccc2Cl)[C@@H](c2ccccc2Cl)O1,31.7 µM,> 100 µM,17.1 µM,51.4 µM,23 µM,70.8,19 µM,42.6 µM,17.2 µM,42.1 µM,26 µM,76.3 µM,22.2 µM,58.8 µM,16.3 µM,38.4 µM
CC/C(=C/c1ccc(OC)cc1)[N+](=O)[O-],2.23 µM,5.89 µM,2.7 µM,7.3 µM,2.34 µM,6.08,2.07 µM,4.56 µM,2.71 µM,7.12 µM,2.07 µM,3.86 µM,1.74 µM,3.43 µM,3.84 µM,22.2 µM
COc1ccc2c(Cl)cc(NC(=S)Nc3ccccc3)nc2c1,–,> 100 µM,–,72.2 µM,–,99.6,–,> 100 µM,–,44.4 µM,–,> 100 µM,–,49.4 µM,–,37.3 µM
Cc1ccc(C)c(N2CCN(c3ccncc3N)CC2)c1,26.9 µM,> 100 µM,25.6 µM,91.2 µM,22.1 µM,> 100,14.4 µM,34.6 µM,11.2 µM,26.3 µM,17.2 µM,67 µM,12.3 µM,46.2 µM,14.8 µM,38.4 µM
COc1cccc(/C=C\C(=O)c2ccccc2)c1,20.2 µM,42.1 µM,6.1 µM,> 100 µM,9.84 µM,41.2,17.7 µM,33.3 µM,3.65 µM,17.5 µM,16.6 µM,32.9 µM,6.46 µM,26.2 µM,4.15 µM,27.7 µM
CC(C)(C)n1cc(-c2ccnc(NCCCNS(=O)(=O)c3cccc4ccccc34)c2)c(-c2cccc(O)c2)n1,–,–,2 µM,5.5 µM,1.98 µM,4.06,2.07 µM,4.39 µM,–,–,1.97 µM,4.36 µM,1.71 µM,5.07 µM,1.89 µM,4.8 µM
CC1CCc2c(C(=O)Nc3ncc(Cc4cccc([N+](=O)[O-])c4)s3)csc2C1 (configuration not stated),0.795 µM,> 100 µM,0.575 µM,> 100 µM,1.56 µM,> 100,3.77 µM,> 100 µM,0.38 µM,> 100 µM,1.96 µM,> 100 µM,2.68 µM,> 100 µM,0.72 µM,> 26.2 µM
CN(N=O)c1ccc(/C=C/c2ccnc3ccccc23)cc1,–,> 100 µM,–,> 100 µM,–,> 100,–,> 100 µM,–,> 100 µM,–,> 100 µM,–,> 100 µM,–,> 100 µM
CN1CCN(Cc2ccc(NC(=O)c3cncc(C#Cc4c(N)ncc5ccccc45)c3)cc2C(F)(F)F)CC1,0.733 µM,1.66 µM,0.276 µM,1.37 µM,0.658 µM,1.45,0.773 µM,1.6 µM,0.18 µM,1.04 µM,–,–,0.158 µM,0.836 µM,0.64 µM,1.86 µM

# From PubChem BioAssay (NCI)
